Here are results for 27 compounds from US20070208040A1, “A2A ADENOSINE RECEPTOR ANTAGONISTS” (priority 2006, published 2007).

For the test, the target named is A2A adenosine receptor (UniProt P29274). The test can be described thus: A2A radioligand binding assay (displacement of 3H-MSX-2). More on the design: species or system human. To be noted: displacement of 2 nM 3H-MSX-2 from 15 ug A2A membrane, 23° C., 2 hours. The source says:
A tritiated adenosine A2A antagonist, 3-(3-hydroxypropyl)-7-methyl-8-(m-methoxystyryl)-1-propargylxanthine, (3H-MSX-2, specific activity: 80 Ci/mmol), was purchased from American Radiolabeled Chemicals, Inc (St. Louis, Mo.). A tritiated adenosine A1 antagonist, 1,3-Dipropyl-8-cyclopentylxanthine ([^3H]DPCPX, specific activity: 120 Ci/mmol) was purchased from Perkin Elmer (Boston, Mass.). A tritiated adenosine A2a antagonist, 4-(2-[7-amino-2-(2-furyl)[1,2,4]triazolo[2,3-a][1,3,5]triazin-5-ylamino]ethyl)phenol ([^3H]ZM241385 specific activity: 27.4 Ci/mmol) was purchased from American Radiolabeled Chemicals, Inc (St. Louis, Mo.). Adenosine Deaminase (ADA) was purchased from Roche Molecular Biochemicals (Nutley, N.J.). GTP was purchased from Sigma. Concentrated stock solution (10 mM) of compounds was dissolved in dimethylsulfoxide (DMSO), stored at −20° C., and diluted in Tris-EDTA buffer (50 mM Tris and 1 mM EDTA, 10 mM MgCl2, pH 7.4) for use in experiments. The final content of dimethylsulfoxide in Tris-EDTA buffer during experiments was not more than 1%. Male Sprague Dawley rats, weighted 250-400 g, 8-10 weeks old, were purchased from Charles River Labs (Wilmington, Mass.).
HEK293 (Human Embryonic Kidney 293) cells stably expressing human A2A adenosine receptor or human A2B adenosine receptor were maintained in DMEM supplemented with 10% fetal bovine serum, 2 mM L-glutamine, 100 IU/ml penicillin, 50 μg/ml streptomycin and 2 μg/ml puromycin. CHO (Chinese Hamster Ovary) cells stably expressing human A1 adenosine receptor or human A3 adenosine receptor were maintained in F12K medium supplemented with 10% fetal bovine serum, 2 mM L-glutamine, 100 IU penicillin, 50 μg streptomycin and 8 μg/ml puromycin. PC12 (rat pheochromocytoma) cells were cultured in F12K medium supplemented with 10% horse serum and 2.5% fetal bovine serum, 2 mM L-glutamine, 100 IU/ml penicillin, and 50 μg/ml streptomycin. All cells were maintained at 37° C. in a humidified 5% CO2/95% air incubator and recultivated 2 times per week.
Cultured cells in 150 mm^2 dishes were washed once with PBS, detached by scrapping, collected with buffer A (10 mM HEPES, 10 mM EDTA, pH 7.4) containing protease inhibitor cocktail. Cells were then homogenized by a handheld homogenizer at a speed of 4.5 for 1 min. The homogenate was centrifuged by a Beckman ultracentrifuge at a speed of 29,000 × g for 15 min. The pellets were resuspended in buffer HE (10 mM HEPES, 1 mM EDTA, pH 7.4, with protease inhibitor cocktail), centrifuged again at 29,000 × g for 15 min. The crude membrane was resuspended using buffer HE, and protein concentration was measured by the method of Lowery with BSA as standard. Similar procedures were used for membrane preparation for fresh rat tissues. All experimental procedures were done at 4° C. Membranes were aliquot and kept at −80° C.
The binding assays utilized 15 ug of A2A membrane (human recombinant A2A membrane, rat striatal membrane, or PC 12 cell membrane) that had been treated with adenosine deaminase and 50 mM Tris-EDTA buffer (pH=7.4) followed by mixing 2 μL of serially diluted DMSO stock solution of the compounds of this invention at concentrations ranging from 10 μM to 0.1 nM or the control received 2 μL of DMSO alone, then the tritiated antagonist 3-(3-hydroxypropyl)-7-methyl-8-(m-methoxystyryl)-1-propargylxanthine (^3H-MSX-2) in Tris-EDTA buffer (50 mM Tris, 1 mM EDTA, 10 mM MgCl2, pH of 7.4) was added to achieve a final concentration of 2 nM. After incubation at 23° C. for 2 hours, the solutions were filtered using a membrane harvester with multiple washing of the membranes (3×). The filter plates were counted in scintillation cocktail affording the amount of displacement ^3H-MSX-2 by the competitive binding compositions of this invention. Radioligand binding data was analyzed using GraphPad Prism version 4.0 (San Diego, Calif.). […]
(Displacement assays read how much labelled ligand stays bound in the presence of the test substance.)
By Ki is commonly meant a dissociation constant, usually derived from enzyme kinetics or from competition with a known ligand. A low value points to higher affinity. Compound `CCn1c(=O)[nH]c2sc(C3=N[C@@H](C)CO3)c(C)c2c1=O` [XLIII, 6-((4S)-4-methyl(1,3-oxazolin-2-yl))-3-ethyl-5-methyl-1,3-dihydrothiopheno[2,3-d]pyrimidine-2,4-dione] gave a Ki of 93 nM.
To `CCn1c(=O)[nH]c2sc(-c3cnn(Cc4ccccc4)c3)c(C)c2c1=O` [XVIII, 3-ethyl-5-methyl-6-[1-benzylpyrazol-4-yl]-1,3-dihydrothiopheno[2,3-d]pyrimidine-2,4-dione] belongs 752 nM; to `CCn1c(=O)[nH]c2sc(-c3nc(Cc4ccccc4)no3)c(C)c2c1=O` [XX, 3-ethyl-5-methyl-6-[3-benzyl(1,2,4-oxadiazol-5-yl)]-1,3-dihydrothiopheno[2,3-d]pyrimidine-2,4-dione], 805 nM; to `Cc1c(-c2cocn2)sc2[nH]c(=O)n(CC(C)C)c(=O)c12` [XXIII, 5-methyl-3-(2-methylpropyl)-6-(1,3-oxazol-4-yl)-1,3-dihydrothiopheno[2,3-d]pyrimidine-2,4-dione], 96 nM.
To `CC[C@H]1COC(c2sc3c(c2C)c(=O)n(CC(C)C)c(=O)n3C)=N1` [LVIII, 6-((4S)-4-ethyl(1,3-oxazolin-2-yl))-1,5-dimethyl-3-(2-methylpropyl)-1,3-dihydrothiopheno[2,3-d]pyrimidine-2,4-dione] belongs 119 nM; to `CCn1c(=O)c2c(C)c(-c3ccoc3)sc2n(C)c1=O` [XLVI, 3-ethyl-6-(3-furyl)-1,5-dimethyl-1,3-dihydrothiopheno[2,3-d]pyrimidine-2,4-dione], 546 nM.
Take `CCn1c(=O)[nH]c2sc(C(=O)N[C@H](C)CO)c(C)c2c1=O` [XLII, N—((1R)-2-hydroxy-isopropyl)(3-ethyl-5-methyl-2,4-dioxo(1,3-dihydrothiopheno[2,3-d]pyrimidin-6-yl))carboxamide]: the Ki came out at 769 nM.
For `Cc1c(-c2cocn2)sc2c1c(=O)n(CC(C)C)c(=O)n2C` [XXIV, 1,5-dimethyl-3-(2-propylmethyl)-6-(1,3-oxazol-4-yl)-1,3-dihydrothiopheno[1,3-d]pyrimidine-2,4-dione], the Ki came out at 165 nM.
`Cc1c(-c2ccco2)sc2[nH]c(=O)n(CC3CC3)c(=O)c12` [XXXVI, 3-(cyclopropylmethyl)-5-methyl-6-(2-furyl)-1,3-dihydrothiopheno[2,3-d]pyrimidine-2,4-dione] registered a Ki of 170 nM.
The same measure for `CCn1c(=O)[nH]c2sc(-c3ccc(OC)nc3)c(C)c2c1=O` [LIV, 3-ethyl-6-(6-methoxy(3-pyridyl))-5-methyl-1,3-dihydrothiopheno[2,3-d]pyrimidine-2,4-dione]: 406 nM; for `Cc1c(C2=NC[C@@H](C)O2)sc2[nH]c(=O)n(CC(C)C)c(=O)c12` [LVII, 6-((5R)-5-methyl(1,3-oxazolin-2-yl))-5-methyl-3-(2-methylpropyl)-1,3-dihydrothiopheno[2,3-d]pyrimidine-2,4-dione]: 239 nM.
`CCn1c(=O)c2c(C)c(-c3ccco3)sc2n(C)c1=O` [XXXIX, 3-ethyl-6-(2-furyl)-1,5-dimethyl-1,3-dihydrothiopheno[2,3-d]pyrimidine-2,4-dione] showed a Ki of 250 nM.
`CCn1c(=O)[nH]c2sc(C(=O)NC)c(C)c2c1=O` [XV, (3-ethyl-5-methyl-2,4-dioxo(1,3-dihydrothiopheno[2,3-d]pyrimidin-6-yl))-n-methylcarboxamide] returned a Ki of 676 nM.
The same measure for `CCn1c(=O)[nH]c2scc(C)c2c1=O` [X, 3-ethyl-5-methyl-1,3-dihydrothiopheno[2,3-d]pyrimidine-2,4-dione]: 397 nM; for `CCn1c(=O)[nH]c2sc(-c3ccsc3)c(C)c2c1=O` [XII, 3-ethyl-5-methyl-6-(3-thienyl)-1,3-dihydrothiopheno[2,3-d]pyrimidine-2,4-dione]: 559 nM.
To `CCn1c(=O)c2c(C)c(-c3ccc[nH]3)sc2n(C)c1=O` [XLIX, 3-ethyl-1,5-dimethyl-6-pyrrol-2-yl-1,3-dihydrothiopheno[2,3-d]pyrimidine-2,4-dione] belongs 488 nM; to `Cc1c(-c2cccs2)sc2[nH]c(=O)n(C)c(=O)c12` [XXXIII, 3,5-dimethyl-6-(2-thienyl)-1,3-dihydrothiopheno[2,3-d]pyrimidine-2,4-dione], 150 nM.
Take `CCn1c(=O)[nH]c2sc(-c3ccoc3)c(C)c2c1=O` [II, 3-ethyl-6-(3-furyl)-5-methyl-1,3-dihydrothiopheno[2,3-d]pyrimidine-2,4-dione]: the affinity, expressed as Ki, was 88 nM.
The compound `CCn1c(=O)[nH]c2sc(-c3cc(C)cs3)c(C)c2c1=O` [XXXI, 3-ethyl-5-methyl-6-(4-methyl(2-thienyl))-1,3-dihydrothiopheno[2,3-d]pyrimidine-2,4-dione] returned a Ki of 150 nM.
The same measure for `CCn1c(=O)[nH]c2sc3c(c2c1=O)CCCC3` [XI, 3-ethyl-1,3,5,6,7,8-hexahydrobenzo[b]thiopheno[2,3-d]pyrimidine-2,4-dione]: 458 nM; for `Cc1c(-c2ncco2)sc2[nH]c(=O)n(CC(C)C)c(=O)c12` [XXIX, 5-methyl-3-(2-methylpropyl)-6-(1,3-oxazol-2-yl)-1,3-dihydrothiopheno[2,3-d]pyrimidine-2,4-dione]: 75 nM; for `C#CCn1c(=O)[nH]c2scc(C)c2c1=O` [IX, 5-methyl-3-prop-2-ynyl-1,3-dihydrothiopheno[2,3-d]pyrimidine-2,4-dione]: 365 nM.
The compound `Cc1c(-c2ccco2)sc2[nH]c(=O)n(C)c(=O)c12` [XXXIV, 6-(2-furyl)-3,5-dimethyl-1,3-dihydrothiopheno[2,3-d]pyrimidine-2,4-dione] registered a Ki of 110 nM.
In the case of `CCn1c(=O)[nH]c2sc(-c3ncco3)c(C)c2c1=O` [V, 3-ethyl-5-methyl-6-(1,3-oxazol-2-yl)-1,3-dihydrothiopheno[2,3-d]pyrimidine-2,4-dione], affinity was put at a Ki of 134 nM. This Ki and that of the compound before are within 1.5-fold of each other.
In the case of `CCn1c(=O)[nH]c2sc(-c3ccco3)c(C)c2c1=O` [IV, 3-ethyl-6-(2-furyl)-5-methyl-1,3-dihydrothiopheno[2,3-d]pyrimidine-2,4-dione], the Ki came to 105 nM.
`Cc1c(C2=NC[C@@H](C)O2)sc2c1c(=O)n(CC(C)C)c(=O)n2C` [LIX, 6-((5R)-5-methyl(1,3-oxazolin-2-yl))-1,5-dimethyl-3-(2-methylpropyl)-1,3-dihydrothiopheno[2,3-d]pyrimidine-2,4-dione]: the Ki was 450 nM.
For the compound `CC[C@H]1COC(c2sc3[nH]c(=O)n(CC(C)C)c(=O)c3c2C)=N1` [LVI, 6-((4S)-4-ethyl(1,3-oxazolin-2-yl))-5-methyl-3-(2-methylpropyl)-1,3-dihydrothiopheno[2,3-d]pyrimidine-2,4-dione], the affinity, expressed as Ki, was 58 nM. This Ki is about 7.8-fold lower than that of the compound before.
